Patent US12064426B2, “Selective inhibitors of ROCK1 and ROCK2 protein kinases and uses thereof” (GENOSCO Inc., priority 2021, dated 2024)

How the values were obtained:
[1] = molecular target: T1, Recombinant ROCK2 (amino acids 5-554) (Homo sapiens, UniProt O75116); assay: ROCK inhibition assay, LANCE Ultra TR-FRET kinase assay (ROCK2); type: biochemical; settings: 4 μM ATP, 50 nM ULight-CREBtide substrate
T1 construct: ROCK2 (amino acids 5-554); by word order, ROCK2 from SignalChem
In short: (§1)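 Reaction buffer 50 mM HEPES pH 7.5, 10 mM MgCl2, 1 mM EGTA, 2 mM DTT; kinase, ULight-CREBtide (50 nM) and ATP (ROCK1 1 μM, ROCK2 4 μM) react 1 h at room temperature. Phospho-Ser133 detected by europium antibody after 10 mM EDTA stop, TR-FRET ex 320 nm; IC50 calculated.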

[2] = molecular target: T2, Recombinant ROCK1 (amino acids 1-477) (Homo sapiens, UniProt Q13464); assay: ROCK inhibition assay, LANCE Ultra TR-FRET kinase assay (ROCK1); type: biochemical; settings: 1 μM ATP, 50 nM ULight-CREBtide substrate
T2 construct: Recombinant ROCK1 (amino acids 1-477); by word order, ROCK1 from Carna Biosciences
T2 sequence (Q13464 1-477): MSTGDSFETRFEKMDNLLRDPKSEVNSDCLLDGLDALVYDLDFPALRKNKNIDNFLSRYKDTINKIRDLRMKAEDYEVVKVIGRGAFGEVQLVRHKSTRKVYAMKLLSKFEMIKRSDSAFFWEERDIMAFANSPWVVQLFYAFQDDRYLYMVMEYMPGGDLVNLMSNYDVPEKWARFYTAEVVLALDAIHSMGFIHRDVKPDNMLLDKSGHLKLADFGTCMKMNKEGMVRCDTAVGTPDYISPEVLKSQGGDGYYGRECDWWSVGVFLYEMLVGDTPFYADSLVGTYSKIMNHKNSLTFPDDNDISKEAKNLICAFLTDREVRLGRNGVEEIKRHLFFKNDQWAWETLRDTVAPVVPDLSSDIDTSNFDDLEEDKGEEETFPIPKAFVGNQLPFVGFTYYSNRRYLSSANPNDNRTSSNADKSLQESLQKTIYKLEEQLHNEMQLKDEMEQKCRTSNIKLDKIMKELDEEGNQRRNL
In short: as §1

T1 sequence (O75116 5-554): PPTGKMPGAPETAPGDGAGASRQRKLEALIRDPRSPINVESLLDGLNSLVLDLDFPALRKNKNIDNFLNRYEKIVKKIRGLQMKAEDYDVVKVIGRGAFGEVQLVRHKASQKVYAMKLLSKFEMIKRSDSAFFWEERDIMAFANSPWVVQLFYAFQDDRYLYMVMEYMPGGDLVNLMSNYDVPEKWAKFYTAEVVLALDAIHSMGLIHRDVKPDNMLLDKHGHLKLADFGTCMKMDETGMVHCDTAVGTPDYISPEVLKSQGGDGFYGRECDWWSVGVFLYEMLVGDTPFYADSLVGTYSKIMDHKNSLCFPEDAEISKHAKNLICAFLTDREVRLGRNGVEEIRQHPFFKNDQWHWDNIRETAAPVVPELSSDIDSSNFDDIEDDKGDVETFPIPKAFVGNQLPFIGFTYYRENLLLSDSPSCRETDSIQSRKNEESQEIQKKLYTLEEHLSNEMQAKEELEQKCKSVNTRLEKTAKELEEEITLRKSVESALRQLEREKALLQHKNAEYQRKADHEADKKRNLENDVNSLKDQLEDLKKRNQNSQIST

IC50 [1] [nM] | IC50 [2] [nM] | SMILES
< 10 | 11 to 100 | Cc1nocc1-c1cc2ccn(Cc3cc(F)cc(C(=O)NCC4CCN(C)CC4)c3)c(=O)c2cn1 [Compound 265]
< 10 | 11 to 100 | Cc1nocc1-c1cc2ccn(Cc3cc(F)cc(C(=O)NCC4CCOCC4)c3)c(=O)c2cn1 [Compound 266]
< 10 | 11 to 100 | Cc1nocc1-c1cc2ccn(Cc3cc(F)cc(C(=O)NCCN4CCOCC4)c3)c(=O)c2cn1 [Compound 267]
< 10 | 11 to 100 | CN1CCN(CCNC(=O)c2cc(F)cc(Cn3ccc4cc(-c5ccnn5C)ncc4c3=O)c2)CC1 [Compound 268]
10 to 100 | 101 to 500 | Cn1nccc1-c1cc2ccn(Cc3cc(F)cc(C(=O)NCC4COC4)c3)c(=O)c2cn1 [Compound 269]
10 to 100 | 11 to 100 | Cn1nccc1-c1cc2ccn(Cc3cc(F)cc(C(=O)NCC4CCOCC4)c3)c(=O)c2cn1 [Compound 270]
< 10 | < 10 | Cn1nccc1-c1cc2ccn(Cc3cc(F)cc(C(=O)NCCc4cccnc4)c3)c(=O)c2cn1 [Compound 271]
< 10 | < 10 | CC(C)NC(=O)c1cc(F)cc(Cn2ccc3cc(-c4c[nH]nc4Br)ncc3c2=O)c1 [Compound 272]
< 10 | < 10 | CN1CCC(CNC(=O)c2cc(F)cc(Cn3ccc4cc(-c5c[nH]nc5Br)ncc4c3=O)c2)CC1 [Compound 273]
< 10 | < 10 | CN1CCC(CNC(=O)c2cc(F)cc(Cn3ccc4cc(-c5c[nH]nc5C(F)F)ncc4c3=O)c2)CC1 [Compound 274]
< 10 | 11 to 100 | O=C(N[C@H]1CC[C@@H](O)CC1)c1cc(F)cc(Cn2ccc3cc(-c4c[nH]nc4C(F)F)ncc3c2=O)c1 [Compound 275]
< 10 | 11 to 100 | O=C(NCC1CCOCC1)c1cc(F)cc(Cn2ccc3cc(-c4c[nH]nc4C(F)F)ncc3c2=O)c1 [Compound 276]
< 10 | 11 to 100 | [2H]C([2H])([2H])NC(=O)c1cccc(Cn2ccc3cc(-c4cn[nH]c4C(F)(F)F)ccc3c2=O)c1 [Compound 278]
< 10 | 11 to 100 | CNC(=O)c1cccc(C(C)n2ccc3cc(-c4cn[nH]c4C(F)(F)F)ccc3c2=O)c1 (stereo not drawn) [Compound 279]
< 10 | 11 to 100 | [2H]C([2H])([2H])NC(=O)c1cc(F)cc(Cn2ccc3cc(-c4cn[nH]c4C(F)(F)F)ccc3c2=O)c1 [Compound 282]
< 10 | 11 to 100 | CNC(=O)c1cc(F)cc(C(C)n2ccc3cc(-c4cn[nH]c4C(F)(F)F)ccc3c2=O)c1 (stereo not drawn) [Compound 283]

IC50 [1] [nM] | IC50 [2] [nM] | SMILES
10 to 100 | 101 to 500 | CNC(=O)c1cc(Cn2ccc3cc(-c4cn[nH]c4C(F)(F)F)ccc3c2=O)ccc1F [Compound 284]
10 to 100 | 101 to 500 | CNC(=O)c1cc(Cl)cc(Cn2ccc3cc(-c4cn[nH]c4C(F)(F)F)ccc3c2=O)c1 [Compound 285]
< 10 | 11 to 100 | CNC(=O)c1cccc(Cn2ccc3cc(-c4cn[nH]c4C(F)F)ccc3c2=O)c1 [Compound 286]
< 10 | 11 to 100 | CNC(=O)c1cccc(C(C)n2ccc3cc(-c4cn[nH]c4C(F)F)ccc3c2=O)c1 (stereo not drawn) [Compound 287]
< 10 | 11 to 100 | [2H]C([2H])([2H])NC(=O)c1cccc(C(C)n2ccc3cc(-c4cn[nH]c4C(F)F)ccc3c2=O)c1 (stereo not drawn) [Compound 288]
< 10 | 11 to 100 | CNC(=O)c1cc(F)cc(Cn2ccc3cc(-c4cn[nH]c4C(F)F)ccc3c2=O)c1 [Compound 289]
< 10 | 11 to 100 | CNC(=O)c1cccc(Cn2ccc3cc(-c4cn[nH]c4Cl)ccc3c2=O)c1 [Compound 290]
< 10 | 11 to 100 | [2H]C([2H])([2H])NC(=O)c1cccc(Cn2ccc3cc(-c4cn[nH]c4Cl)ccc3c2=O)c1 [Compound 291]
< 10 | 11 to 100 | CNC(=O)c1cccc(C(C)n2ccc3cc(-c4cn[nH]c4Cl)ccc3c2=O)c1 (stereo not drawn) [Compound 292]
< 10 | 11 to 100 | CNC(=O)c1cc(F)cc(Cn2ccc3cc(-c4cn[nH]c4Cl)ccc3c2=O)c1 [Compound 293]
< 10 | 11 to 100 | CNC(=O)c1cc(F)cc(C(C)n2ccc3cc(-c4cn[nH]c4Cl)ccc3c2=O)c1 (stereo not drawn) [Compound 294]
< 10 | 11 to 100 | [2H]C([2H])([2H])NC(=O)c1cccc(Cn2ccc3cc(-c4cn[nH]c4F)ccc3c2=O)c1 [Compound 296]
< 10 | 11 to 100 | CNC(=O)c1cccc(Cn2ccc3cc(-c4cn[nH]c4F)ccc3c2=O)c1 [Compound 297]
< 10 | 11 to 100 | CNC(=O)c1cc(F)cc(C(C)n2ccc3cc(-c4cn[nH]c4F)ccc3c2=O)c1 (stereo not drawn) [Compound 298]
> 500 | > 501 | CNC(=O)c1cccc(Cn2ccc3cc(-c4cnn(C)c4)ccc3c2=O)c1 [Compound 299]

Further lines, the compound ahead of its results:

SMILES | IC50 [1] [nM] | IC50 [2] [nM]
[2H]C([2H])([2H])NC(=O)c1cccc(Cn2ccc3cc(-c4cn[nH]c4C(F)(F)F)ncc3c2=O)c1 [Compound 234] | < 10 | 11 to 100
CNC(=O)c1cccc(Cn2ccc3cc(-c4c[nH]nc4Cl)ncc3c2=O)c1 [Compound 235] | < 10 | 11 to 100
[2H]C([2H])([2H])NC(=O)c1cccc(Cn2ccc3cc(-c4c[nH]nc4Cl)ncc3c2=O)c1 [Compound 236] | < 10 | 11 to 100
CNC(=O)c1cccc(Cn2ccc3cc(-c4cn[nH]c4C(F)F)ncc3c2=O)c1 [Compound 237] | < 10 | 11 to 100
[2H]C([2H])([2H])NC(=O)c1cccc(Cn2ccc3cc(-c4cn[nH]c4C(F)F)ncc3c2=O)c1 [Compound 238] | < 10 | 11 to 100
CNC(=O)c1cccc(Cn2ccc3cc(-c4c[nH]nc4C)ncc3c2=O)c1 [Compound 239] | < 10 | 11 to 100
CNC(=O)c1cccc(Cn2ccc3cc(-c4ccnn4C)ncc3c2=O)c1 [Compound 240] | 10 to 100 | 101 to 500
CNC(=O)c1cccc(Cn2ccc3cc(-c4conc4C)ncc3c2=O)c1 [Compound 241] | 10 to 100 | 101 to 500
CNC(=O)c1cccc(Cn2ccc3cc(-c4cn[nH]c4C(F)(F)F)cnc3c2=O)c1 [Compound 242] | 100 to 500 | > 501
CNC(=O)c1cccc(Cn2ccc3cc(-c4conc4C)cnc3c2=O)c1 [Compound 243] | 100 to 500 | > 501
CNC(=O)c1cccc(Cn2ccc3cc(-c4ccnc(N)c4)ncc3c2=O)c1 [Compound 244] | 10 to 100 | 101 to 500
CNC(=O)c1cc(F)cc(Cn2ccc3cc(-c4ccnn4C)ncc3c2=O)c1 [Compound 245] | 10 to 100 | 101 to 500
CNC(=O)c1cc(F)cc(Cn2ccc3cc(-c4cn[nH]c4C(F)(F)F)ncc3c2=O)c1 [Compound 246] | < 10 | 11 to 100
CNC(=O)c1cc(F)cc(Cn2ccc3cc(-c4ccoc4C)ncc3c2=O)c1 [Compound 247] | > 500 | > 501
CNC(=O)c1cc(F)cc(Cn2ccc3cc(-c4cn[nH]c4C)ncc3c2=O)c1 [Compound 248] | 10 to 100 | 11 to 100
CNC(=O)c1cc(F)cc(Cn2ccc3cc(-c4c[nH]nc4Cl)ncc3c2=O)c1 [Compound 249] | < 10 | < 10
CNC(=O)c1cc(F)cc(Cn2ccc3cc(-c4ccnc(N)c4)ncc3c2=O)c1 [Compound 251] | 10 to 100 | 101 to 500
CNC(=O)c1cc(F)cc(Cn2ccc3cc(-c4c[nH]nc4C(F)F)ncc3c2=O)c1 [Compound 252] | < 10 | 11 to 100
Cc1n[nH]cc1-c1cc2ccn(Cc3cc(F)cc(C(=O)NC4CCOCC4)c3)c(=O)c2cn1 [Compound 253] | < 10 | 11 to 100
CCNC(=O)c1cc(F)cc(Cn2ccc3cc(-c4c[nH]nc4C)ncc3c2=O)c1 [Compound 254] | < 10 | 11 to 100
Cc1n[nH]cc1-c1cc2ccn(Cc3cc(F)cc(C(=O)NCC4CCN(C)CC4)c3)c(=O)c2cn1 [Compound 256] | < 10 | < 10
CN1CCC(CNC(=O)c2cc(F)cc(Cn3ccc4cc(-c5c[nH]nc5C(F)(F)F)ncc4c3=O)c2)CC1 [Compound 257] | < 10 | < 10
O=C(NCC1COC1)c1cc(F)cc(Cn2ccc3cc(-c4c[nH]nc4C(F)(F)F)ncc3c2=O)c1 [Compound 258] | < 10 | 11 to 100
CN1CCC(NC(=O)c2cc(F)cc(Cn3ccc4cc(-c5c[nH]nc5C(F)(F)F)ncc4c3=O)c2)CC1 [Compound 259] | < 10 | 11 to 100
O=C(N[C@H]1CC[C@H](O)CC1)c1cc(F)cc(Cn2ccc3cc(-c4c[nH]nc4C(F)(F)F)ncc3c2=O)c1 [Compound 260] | < 10 | 11 to 100
CN1CCC(NC(=O)c2cc(F)cc(Cn3ccc4cc(-c5c[nH]nc5Cl)ncc4c3=O)c2)CC1 [Compound 261] | < 10 | < 10
O=C(N[C@H]1CC[C@@H](O)CC1)c1cc(F)cc(Cn2ccc3cc(-c4c[nH]nc4Cl)ncc3c2=O)c1 [Compound 262] | < 10 | < 10
O=C(N[C@H]1CC[C@H](O)CC1)c1cc(F)cc(Cn2ccc3cc(-c4c[nH]nc4Cl)ncc3c2=O)c1 [Compound 263] | < 10 | 11 to 100
CC(C)NC(=O)c1cc(F)cc(Cn2ccc3cc(-c4c[nH]nc4Cl)ncc3c2=O)c1 [Compound 264] | < 10 | 11 to 100
